Experimental data taken from the supplement of paper PMC9244889.
Structures can show the parent of a compound that is named as a salt.

Tests used:
Vero E6 [1] = assay: cytotoxicity relative to untreated cell control; higher = more toxic; conditions: 72 h, assay detail: uninfected
Method: (§1)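 Vero E6 C1008 cells (2e4 cells/well) were treated with a 3-fold dilution series of each drug (monotherapy), with or without live SARS-CoV-2 (propagated original strain, 100 TCID50). After 72 h at 37 °C, viability was read with Viral ToxGlo (ATP luminescence). %Inhibition of virus-induced CPE and %Cytotoxicity (uninfected) were normalised to cell and virus controls. Triplicates. The paper excluded %Inhibition points with >25% cytotoxicity from its curve fits.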

Vero E6 [2] = assay: inhibition of SARS-CoV-2-induced cytopathic effect relative to cell and virus controls; higher = more antiviral protection; conditions: 72 h, virus: SARS-CoV-2 propagated original strain, 100 TCID50, assay detail: infected
Method: as §1

O=c1nc(NO)ccn1[C@@H]1O[C@H](CO)[C@@H](O)[C@H]1O [EIDD-1931]
Conditions	cytotoxicity, Vero E6 [1] [%]	inhibition of SARS-CoV-2-induced cytopathic effect, Vero E6 [2] [%]
56.45 pM	-9.83	-1.26
0.000169351 µM	-16.6	0.00675
0.000508053 µM	-20	0.0533
0.00152416 µM	-19.1	0.601
0.00457247 µM	-16.2	-0.506
0.0137174 µM	-14.9	-0.261
0.0411523 µM	-10.5	-0.787
0.123457 µM	-12.1	3.32
0.37037 µM	-7.1	13.2
1.11111 µM	-15.6	57.5
3.33333 µM	7.25	78.3
10 µM	25.9	70.6

CCc1c2c(nc3ccc(O)cc13)-c1cc3c(c(=O)n1C2)COC(=O)[C@]3(O)CC [SN-38]
Conditions	cytotoxicity, Vero E6 [1] [%]	inhibition of SARS-CoV-2-induced cytopathic effect, Vero E6 [2] [%]
56.45 pM	-12.2	-1.53
0.000169351 µM	-12.8	-0.815
0.000508053 µM	-9.63	-0.975
0.00152416 µM	-8.98	-2.92
0.00457247 µM	-9.11	-3.61
0.0137174 µM	-9.99	-6.1
0.0411523 µM	5.49	-10.4
0.123457 µM	1.29	-10.9
0.37037 µM	1.32	-11.1
1.11111 µM	6.01	-10.4
3.33333 µM	43.6	-14.8
10 µM	82.6	-17.4

CCS(=O)(=O)N1CC(CC#N)(n2cc(-c3ncnc4[nH]ccc34)cn2)C1 [baricitinib]
Conditions	cytotoxicity, Vero E6 [1] [%]	inhibition of SARS-CoV-2-induced cytopathic effect, Vero E6 [2] [%]
56.45 pM	-23.8	0.443
0.000169351 µM	-24.9	-0.597
0.000508053 µM	-20.2	1.73
0.00152416 µM	-17.5	0.473
0.00457247 µM	-20.6	0.0832
0.0137174 µM	-15.3	-0.169
0.0411523 µM	-17.8	-0.529
0.123457 µM	-13.4	-0.177
0.37037 µM	-9.61	0.117
1.11111 µM	-14	-1.55
3.33333 µM	-9.73	-2.06
10 µM	-10.3	-1.06

O=c1c2ccccc2[se]n1-c1ccccc1 [ebselen]
Conditions	cytotoxicity, Vero E6 [1] [%]	inhibition of SARS-CoV-2-induced cytopathic effect, Vero E6 [2] [%]
56.45 pM	-9.38	0.954
0.000169351 µM	-15.3	-0.438
0.000508053 µM	-9.41	-0.0732
0.00152416 µM	-4.85	-0.949
0.00457247 µM	-3.63	-0.344
0.0137174 µM	-5.61	-0.6
0.0411523 µM	-10.3	-1.57
0.123457 µM	-6.66	0.817
0.37037 µM	-2.52	0.828
1.11111 µM	-1.45	1.82
3.33333 µM	2.92	6.69
10 µM	17.6	71.3

Cc1ccc(NC(=O)c2ccc(CN3CCN(C)CC3)cc2)cc1Nc1nccc(-c2cccnc2)n1 [imatinib mesylate]
Conditions	cytotoxicity, Vero E6 [1] [%]	inhibition of SARS-CoV-2-induced cytopathic effect, Vero E6 [2] [%]
0.000564503 µM	4.59	0.0871
0.00169351 µM	-0.227	-0.274
0.00508053 µM	-4.57	-1.02
0.0152416 µM	-8.01	-0.646
0.0457247 µM	-4.41	-1.84
0.137174 µM	-4.39	-1.94
0.411523 µM	-6.59	-2
1.23457 µM	-4.79	1.61
3.7037 µM	-6.93	18
11.1111 µM	9.9	102
33.3333 µM	61.8	48.6
100 µM	99.785	-17.3

Cc1cccc(C)c1OCC(=O)N[C@@H](Cc1ccccc1)[C@@H](O)C[C@H](Cc1ccccc1)NC(=O)[C@H](C(C)C)N1CCCNC1=O [lopinavir]
Conditions	cytotoxicity, Vero E6 [1] [%]	inhibition of SARS-CoV-2-induced cytopathic effect, Vero E6 [2] [%]
0.00112901 µM	8.74	2.06
0.00338702 µM	6.74	1.04
0.0101611 µM	-8.25	1.48
0.0304832 µM	-3.94	0.483
0.0914495 µM	-7.05	1.04
0.274348 µM	-5.02	2.11
0.823045 µM	-7.06	1.91
2.46914 µM	-5.88	1.69
7.40741 µM	-25.7	2.75
22.2222 µM	25.9	72.7
66.6667 µM	99.066	-14.47
200 µM	99.504	-14.97

Cc1ccc(NC(=O)c2ccc(CN3CCN(C)CC3)cc2)cc1Nc1nc(-c2cccnc2)cs1 [masitinib]
Conditions	cytotoxicity, Vero E6 [1] [%]	inhibition of SARS-CoV-2-induced cytopathic effect, Vero E6 [2] [%]
0.000564503 µM	-15.3	0.87
0.00169351 µM	-17.5	1.03
0.00508053 µM	-21.6	2.14
0.0152416 µM	-16.3	1.2
0.0457247 µM	-19.4	0.66
0.137174 µM	-17.8	0.458
0.411523 µM	-19.8	3.69
1.23457 µM	-15.2	8.75
3.7037 µM	4.4	42.8
11.1111 µM	83.4	18.1
33.3333 µM	99.617	-7.42
100 µM	99.831	-17.86

N=C(N)Nc1ccc(C(=O)Oc2ccc3cc(C(=N)N)ccc3c2)cc1 [nafamostat mesylate]
Conditions	cytotoxicity, Vero E6 [1] [%]	inhibition of SARS-CoV-2-induced cytopathic effect, Vero E6 [2] [%]
56.45 pM	-10.2	1.36
0.000169351 µM	-7.59	0.555
0.000508053 µM	-1.77	1.31
0.00152416 µM	-4.85	0.363
0.00457247 µM	-6	0.453
0.0137174 µM	-9.55	0.391
0.0411523 µM	-7.66	-0.525
0.123457 µM	-5.32	-0.383
0.37037 µM	1.08	0.358
1.11111 µM	-2.6	0.841
3.33333 µM	1.59	0.526
10 µM	-0.485	-0.288

CCC(CC)COC(=O)[C@H](C)N[P@](=O)(OC[C@H]1O[C@@](C#N)(c2ccc3c(N)ncnn23)[C@H](O)[C@@H]1O)Oc1ccccc1 [remdesivir]
Conditions	cytotoxicity, Vero E6 [1] [%]	inhibition of SARS-CoV-2-induced cytopathic effect, Vero E6 [2] [%]
0.000564503 µM	-22.9	1.31
0.00169351 µM	-17.3	1.17
0.00508053 µM	-11.8	-0.59
0.0152416 µM	-6.94	-0.693
0.0457247 µM	-6.5	-0.335
0.137174 µM	-4.51	1.45
0.411523 µM	-1.99	6.62
1.23457 µM	-7.93	42.2
3.7037 µM	-2.61	111
11.1111 µM	2.25	108
33.3333 µM	9.25	96.6
100 µM	59.6	44.1

CC(C)c1nc(CN(C)C(=O)N[C@H](C(=O)N[C@@H](Cc2ccccc2)C[C@H](O)[C@H](Cc2ccccc2)NC(=O)OCc2cncs2)C(C)C)cs1 [ritonavir]
Conditions	cytotoxicity, Vero E6 [1] [%]	inhibition of SARS-CoV-2-induced cytopathic effect, Vero E6 [2] [%]
0.00112901 µM	-15.2	2.5
0.00338702 µM	-13.3	3.51
0.0101611 µM	-27.3	1.73
0.0304832 µM	-22.5	0.79
0.0914495 µM	-33.3	2.39
0.274348 µM	-28.6	0.802
0.823045 µM	-22	1.81
2.46914 µM	-21.4	1.96
7.40741 µM	-27.3	2.22
22.2222 µM	-38.7	7.59
66.6667 µM	8.14	2.75
200 µM	69.7	-2.18

O=C(/C=C\n1cnc(-c2cc(C(F)(F)F)cc(C(F)(F)F)c2)n1)NNc1cnccn1 [selinexor]
Conditions	cytotoxicity, Vero E6 [1] [%]	inhibition of SARS-CoV-2-induced cytopathic effect, Vero E6 [2] [%]
0.000564503 µM	14.6	1.79
0.00169351 µM	14.9	0.365
0.00508053 µM	7.61	-1.85
0.0152416 µM	7.88	-2.96
0.0457247 µM	29.1	-4.3
0.137174 µM	23.4	-3.81
0.411523 µM	35.6	-3.25
1.23457 µM	47.2	-2.87
3.7037 µM	48.93	-1.23
11.1111 µM	44.1	8.51
33.3333 µM	89.1	-1.32
100 µM	99.74	-15.08

CCC[C@H](NC(=O)[C@@H]1[C@H]2CCC[C@H]2CN1C(=O)[C@@H](NC(=O)[C@@H](NC(=O)c1cnccn1)C1CCCCC1)C(C)(C)C)C(=O)C(=O)NC1CC1 [telaprevir]
Conditions	cytotoxicity, Vero E6 [1] [%]	inhibition of SARS-CoV-2-induced cytopathic effect, Vero E6 [2] [%]
0.000564503 µM	0.259	0.117
0.00169351 µM	-0.00145	1.28
0.00508053 µM	-4.54	-0.629
0.0152416 µM	-3.42	-0.222
0.0457247 µM	-3.36	0.129
0.137174 µM	-8.35	-0.93
0.411523 µM	-3.53	-0.643
1.23457 µM	-4.1	1.01
3.7037 µM	-6.16	0.773
11.1111 µM	-1.51	0.394
33.3333 µM	17.2	-2.07
100 µM	80.5	17.4
